Source: patent US20230250108A1, “TETRAHYDROISOQUINOLINE COMPOUNDS AND USE THEREOF” (JIANGSU SIMCERE PHARMACEUTICAL CO., LTD., priority 2020, published 2023)
Structures can show the parent of a compound that is named as a salt. Where two headings read alike, the source gives them in different places.

Tests used:
[1] = in vitro; settings: human, hepatocytes
Source text: (§2) Experimental materials: Human hepatocytes were purchased from Biopredic; mouse hepatocytes were purchased from BioIVT; acetonitrile and methanol were purchased from Merck & Co., Inc.; AOPI dyes were purchased from Nexcelom; dexamethasone was purchased from NIFDC; DMSO was purchased from Beijing Solarbio Science & Technology Co., Ltd.; DPBS (10×), GlutaMAX™-1 (100×) and recombinant human insulin were purchased form Gibco by Life Technologies; fetal bovine serum was purchased from Corning; formic acid was purchased from DIKMAPURE; Isotonic Percoll was purchased from GE Healthcare; alprazolam was purchased from Supelco; caffeine was purchased from ChromaDex.inc; and HEPES, tolbutamide and Williams' Medium E were purchased from Sigma.
(§3) The powder of a test substance was formulated with DMSO into a stock solution with a high concentration, which was diluted to a working solution of 100 μM with acetonitrile prior to use. The final concentration of the test substance was 1 μM.
(§4) 49.5 mL of Williams'E Medium and 0.5 mL of GlutaMAX were mixed as an incubation media. Hepatocyte thawing media and incubation media were placed in a 37° C. water-bath and pre-heated for at least 15 minutes prior to use. A tube of hepatocytes stored at an ultra-low temperature was taken and the hepatocytes were ensured to be at a frozen state at a low temperature prior to thawing. The hepatocytes were rapidly placed in a 37° C. water-bath and gently shaken until all the ice crystals were dispersed, and then after 70% ethanol was sprayed, the hepatocytes were transferred to a biosafety cabinet. The content of the tube was poured into a centrifugal tube containing 50 mL of thawing media and centrifuged at 100 g for 10 minutes. After centrifugation, the thawing media was aspirated, and a sufficient amount of incubation media was added to obtain a cell suspension with a cell density of about 1.5×10^6 cells/mL. The hepatocytes were counted, and the viable cell density was determined using Cellometer Vision, and the survival rate of the hepatocytes must be higher than 75%. The hepatocyte suspension was diluted by using the incubation media to a viable cell density of 0.5×10^6 viable cells/mL.
(§5) 247.5 μL of viable cell (human hepatocytes or mouse hepatocytes) suspension or media were transferred into a 96-well deep-well plate, and the deep-well plate was placed in a vortex incubator and pre-heated for 10 minutes. Incubation of all the samples was performed in parallel duplicate. Test substance (2.5 μL, 100 μM) was added into each well to start the reaction and the deep-well plate was placed in the vortex incubator again. The samples were incubated, and 25 μL of the suspension was taken at 0, 15, 30, 60, 90 and 120 minutes, respectively. 125 μL of acetonitrile containing internal standard (100 nM alprazolam, 200 nM caffeine, and 100 nM tolbutamide) was added to terminate the reaction. The mixture was vortexed for 10 minutes and centrifuged at 3220 g, 4° C. for 30 minutes. After centrifugation, 100 μL of the supernatant was transferred into the loading plate and 150 μL of pure water was added and mixed uniformly for LC-MS/MS analysis.
(§6) All the data calculation was performed by the Microsoft Excel software. The peak area was detected by extracting the ion chromatogram. The in vitro half-life (t1/2) of the parent drug was detected by performing linear fitting of the natural logarithm of elimination percent of the parent drug and time.
(§7) The in vitro half-life (t1/2) was calculated by means of the slope:

[2] = test system: Z-138 cells; experiment: Inhibitory activity on tumor cell proliferation (Cell-Titer Glo, 8 days); format: cell-based; settings: Homo sapiens, 192 h, read-out: Inhibition of cell proliferation Z-138 IC50
Protocol: Materials and cells: Z-138 cells were purchased from ATCC (USA); IMDM medium and penicillin-streptomycin were purchased from Sigma PLC. (USA); horse serum was purchased from Hyclone (USA); 96-well plate was purchased from Corning (USA); and Cell-Titer Glo reagent was purchased from Promega (USA).
(§1) Cell culture: Z-138 cells were cultured in an IMDM culture solution containing 10% Horse serum+1% penicillin−streptomycin at 37° C., 5% CO2. Cells in logarithmic growth phase were suitable for the experiment.
Detection of cell proliferation activity: The inhibitory activities of the compounds on the proliferation of Z-138 cells were detected by using the Cell-Titer Glo reagent. The concentrations of the cells were adjusted, and 180 μL was inoculated in each well of the 96-well plate (500/well) and equilibrated for 10-15 minutes at 37° C., 5% CO2. 20 μL of a culture solution containing the compounds was added into each well with the final concentration reaching 0-300 nM (initial concentration: 300 nM, 3-fold dilution, for 10 points), and the DMSO content was 0.1%. The cell plate was placed at 37° C., 5% CO2 and incubated for 8 days. Culture solution was replaced at day 4: 100 μL of the supernatant was slowly aspirated and 100 μL of a fresh culture solution containing the compounds was provided as a supplement while the concentrations of the compounds were held constant. The cell viability was detected by using the Cell-Titer Glo reagent.

[3] = in vitro; settings: mouse, hepatocytes
Source text: as §2, §3, §4, §5, §6, §7

[4] = test system: SDMA in Z-138 cells; experiment: Inhibitory activity on SDMA in cells (immunofluorescent assay); format: cell-based; settings: Homo sapiens, 48 h, 2 days, read-out: Inhibition of SDMA in cells IC50
Source text: Materials and cells: Z-138 cells were purchased from ATCC (USA); IMDM medium and penicillin-streptomycin were purchased from Sigma PLC. (USA); horse serum was purchased from Hyclone (USA); Hoechst antibodies were purchased from Invitrogen (USA); Alexa Fluor 488 goat anti-rabbit IgG antibodies were purchased from Invitrogen (USA); Anti-dimethyl-Arginine symmetric (SYM11) antibodies were purchased from Merck & Co., Inc. (USA); DPBS was purchased from Gibco (USA); Nonfat Dry milk was purchased from Cell Signaling Technology (USA); paraformaldehyde was purchased from Beijing Solarbio Science & Technology Co., Ltd.; 384-well plate and Echo 550 Liquid Handler were purchased from Labcyte Inc. (USA); and an ImageXpress Nano was purchased from Molecular Devices (USA).
as §1
Immunofluorescent assay: The effects of the compounds on SDMA in Z-138 cells were detected by using immunofluorescence. The cells were adjusted to the concentration of 1*10^5/mL and 40 μL was inoculated in each well of the 384-well plate (4000/well) and equilibrated for 10-15 minutes at 37° C., 5% CO2. The compound was added into a 384-well plate by using the Echo 550 Liquid Handler with the final concentration of 0-300 nM (initial concentration: 300 nM, 3-fold dilution, for 10 points), and the DMSO content was 0.1%. The cell plate was placed at 37° C., 5% CO2 and incubated for 2 days. 40 μL of 8% paraformaldehyde was added into each well and incubated at room temperature for 30 minutes. The supernatant was discarded, the plate was washed with DPBS, and 40 μL of 0.5% PBST (phosphate buffer with Tween) was added into each well and incubated at room temperature for 60 minutes. The supernatant was discarded, the plate was washed with 0.05% PBST, and 40 μL of a blocking solution (1% Nonfat milk in 0.05% PBST) was added into each well and incubated at room temperature for 60 minutes. The supernatant was discarded, and 20 μL of the primary antibody (SYM11, diluted with a blocking solution at 1:500) was added into each well and maintained at 4° C. overnight. The supernatant was discarded, the plate was washed with 0.05% PBST, 20 μL of the secondary antibody (Alexa Fluor 488 goat anti-rabbit and Hoechst, diluted with a blocking solution at 1:1000 and 1:5000, respectively) was added to each well and incubated at room temperature for 60 minutes. The supernatant was discarded, the plate was washed with 0.05% PBST, and the fluorescent intensity was detected with ImageXpress Nano.

[5] = target: T1, PRMT5/MEP50 (Homo sapiens, UniProt O14744); experiment: PRMT5 enzymatic activity inhibition experiment (AlphaScreen); format: biochemical
T1 construct: purchased BPS Bioscience Inc. (USA)
Source text: Materials: PRMT5/MEP50 proteins were purchased from BPS Bioscience Inc. (USA); Histone H4 Peptide substrate was purchased from Sangon Biotech (Shanghai) Co., Ltd.; Anti-Histone H4 (symmetric dimethyl R3) antibody—ChIP Grade was purchased from Abcam PLC. (USA); S-(5′-Adenosyl)-L-methionine chloride dihydrochloride was purchased from Sigma PLC. (USA); 384-well plate, AlphaScreen Streptavidin Donor beads, AlphaScreen Protein A Acceptor beads, and Envision 2104 multi-label Reader were purchased from Perkin-Elmer Instruments (USA) Corporation; and Echo 550 Liquid Handler was purchased from Labcyte Inc. (USA).
Enzymatic activity assay: The compounds were added into a 384-well plate by using the Echo 550 Liquid Handler with the final concentration of 0-1000 nM (initial concentration: 1000 nM, 3-fold dilution, for 10 points), and the DMSO content was 0.5%. 10 μL of a 2× PRMT5/MEP50 solution was added into each well and incubated at room temperature for 30 minutes. 10 μL of 2× PRMT5/MEP50 substrate solution was added to each well to start the reaction and incubated at room temperature for 60 minutes. A 6× detection reagent containing AlphaScreen Protein A Acceptor beads and Anti-Histone H4 (symmetric dimethyl R3) antibodies was prepared and 5 μL was added to each well. The plate was incubated at room temperature for 60 minutes. A 6× detection reagent containing AlphaScreen Streptavidin Donor beads was prepared and 5 μL was added to each well. The plate was incubated at room temperature for 60 minutes. The signal values were detected by using the Envision.

[6] = Hepatocellular metabolic stability test, mouse hepatocytes
Source text: as §2, §3, §4, §5, §6, §7

[7] = Hepatocellular metabolic stability test, human hepatocytes
Source text: as §2, §3, §4, §5, §6, §7

[8] = PRMT5/MEP50, Histone H4 peptide substrate, read-out: Inhibition of enzymatic activity IC50

T1 sequence (O14744 2-637 limits assumed): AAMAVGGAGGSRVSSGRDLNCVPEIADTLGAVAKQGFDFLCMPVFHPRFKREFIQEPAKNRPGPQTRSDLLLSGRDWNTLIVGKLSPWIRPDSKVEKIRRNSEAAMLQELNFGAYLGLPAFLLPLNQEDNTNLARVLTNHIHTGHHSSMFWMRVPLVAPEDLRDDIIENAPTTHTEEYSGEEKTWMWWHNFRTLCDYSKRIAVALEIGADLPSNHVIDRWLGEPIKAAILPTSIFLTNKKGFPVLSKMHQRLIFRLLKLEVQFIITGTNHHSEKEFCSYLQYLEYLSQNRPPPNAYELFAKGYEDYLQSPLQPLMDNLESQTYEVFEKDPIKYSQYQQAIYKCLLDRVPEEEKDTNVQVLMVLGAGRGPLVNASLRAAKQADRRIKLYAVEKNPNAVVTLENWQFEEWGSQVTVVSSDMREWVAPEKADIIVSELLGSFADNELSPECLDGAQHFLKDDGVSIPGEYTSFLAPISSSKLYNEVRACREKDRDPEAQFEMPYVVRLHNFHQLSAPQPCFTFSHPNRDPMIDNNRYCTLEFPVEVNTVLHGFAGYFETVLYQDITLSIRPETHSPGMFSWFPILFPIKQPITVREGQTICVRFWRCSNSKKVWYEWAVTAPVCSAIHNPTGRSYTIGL
T1 sequence (Q9BQA1 2-342 partner limits assumed): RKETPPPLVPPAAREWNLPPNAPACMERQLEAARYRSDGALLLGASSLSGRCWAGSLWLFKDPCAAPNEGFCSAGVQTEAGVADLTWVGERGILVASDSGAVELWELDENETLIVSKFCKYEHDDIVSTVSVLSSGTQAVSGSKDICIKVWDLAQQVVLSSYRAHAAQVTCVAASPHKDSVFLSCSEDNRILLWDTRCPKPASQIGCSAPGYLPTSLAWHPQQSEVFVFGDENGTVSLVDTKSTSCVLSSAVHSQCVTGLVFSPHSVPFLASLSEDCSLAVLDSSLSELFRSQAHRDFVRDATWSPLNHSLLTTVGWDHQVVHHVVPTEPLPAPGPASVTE

Structure (SMILES)	half-life at 1 μM [1]	half-life at 1 μM [3]	IC50 [5, 8]	IC50 [2]	IC50 [4]	half-life at 1 μM [6]	half-life at 1 μM [7]	IC50 [5]
COC1CC2CCC(C1)N2C(=O)c1ccc2c(c1)N(C)CCN(C[C@@H](O)[C@@H]1Cc3ccccc3CN1)C2=O.Cl (stereo partly drawn) [Compound 005, 4-((R)-2-hydroxy-2-((S)-1,2,3,4-tetrahydroisoquinolin-3-yl)ethyl)-8-(3-methoxy-8-azabicyclo[3.2.1]octane-8-carbonyl)-1-methyl-1,2,3,4-tetrahydro-5H-benzo[e][1,4]diazepin-5-one hydrochloride]				4.27 nM	1.5 nM	1.3 h	5.61 h	6.73 nM
CCN1CCN(C[C@@H](O)[C@@H]2Cc3ccccc3CN2)C(=O)c2ccc(C(=O)N3C4CCC3COC4)cc21.Cl [Compound 001, 8-(3-oxa-8-azabicyclo[3.2.1]octane-8-carbonyl)-1-ethyl-4-((R)-2-hydroxy-2-((S)-1,2,3,4-tetrahydroisoquinolin-3-yl)ethyl)-1,2,3,4-tetrahydro-5H-benzo[e][1,4]diazepin-5-one hydrochloride]				3.47 nM	3.8 nM	2.04 h	24.5 h	4.56 nM
COC1CC2CCC(C1)N2C(=O)c1ccc2c(c1)OCCN(C[C@@H](O)[C@@H]1Cc3ccccc3CN1)C2=O (stereo partly drawn) [Compound 008, 4-((R)-2-hydroxy-2-((S)-1,2,3,4-tetrahydroisoquinolin-3-yl)ethyl)-8-(3-methoxy-8-azabicyclo[3.2.1]octane-8-carbonyl)-3,4-dihydrobenzo[f][1,4]oxazepin-5(2H)-one]			12.2 nM	6.04 nM				
CCN1CCN(C[C@@H](O)[C@@H]2Cc3ccccc3CN2)C(=O)c2ccc(C(=O)N3C4CCC3CC(OC)C4)cc21.Cl (stereo partly drawn) [Compound 004, 1-ethyl-4-((R)-2-hydroxy-2-((S)-1,2,3,4-tetrahydroisoquinolin-3-yl)ethyl)-8-(3-methoxy-8-azabicyclo[3.2.1]octane-8-carbonyl)-1,2,3,4-tetrahydro-5H-benzo[e][1,4]diazepin-5-one hydrochloride]				1.87 nM	1.4 nM	0.871 h	11.2 h	4.53 nM

Continued, in another order:

half-life at 1 μM [1]	half-life at 1 μM [3]	IC50 [5, 8]	Structure (SMILES)	IC50 [2]	IC50 [4]	half-life at 1 μM [6]	half-life at 1 μM [7]	IC50 [5]
131 h	1.97 h	2.02 nM	CCN1CCN(C[C@@H](O)[C@@H]2Cc3ccccc3CN2)C(=O)c2ccc(C(=O)N3CCC4(CC3)CC(C#N)C4)cc21 [Compound 003, 7-(1-ethyl-4-((R)-2-hydroxy-2-((S)-1,2,3,4-tetrahydroisoquinolin-3-yl)ethyl)-5-oxo-2,3,4,5-tetrahydro-1H-benzo[e][1,4]diazepine-8-carbonyl)-7-azaspiro[3.5]nonane-2-carbonitrile]	1.21 nM	0.8 nM			
		4.96 nM	COC1CC2(CCN(C(=O)c3ccc4c(c3)OCCN(C[C@@H](O)[C@@H]3Cc5ccccc5CN3)C4=O)CC2)C1 [Compound 009, 4-((R)-2-hydroxy-2-((S)-1,2,3,4-tetrahydroisoquinolin-3-yl)ethyl)-8-(2-methoxy-7-azaspiro[3.5]nonane-7-carbonyl)-3,4-dihydrobenzo[f][1,4]oxazepin-5(2H)-one]	2.97 nM	6.1 nM			
12.9 h	0.588 h		CCN1CCN(C[C@@H](O)[C@@H]2Cc3ccccc3CN2)C(=O)c2ccc(C(=O)N3CCC4(CC3)CC(O)C4)cc21 [Compound 024, 1-ethyl-4-((R)-2-hydroxy-2-((S)-1,2,3,4-tetrahydroisoquinolin-3-yl)ethyl)-8-(2-hydroxy-7-azaspiro[3.5]nonane-7-carbonyl)-1,2,3,4-tetrahydro-5H-benzo[e][1,4]diazepin-5-one]	10.6 nM				
		3.62 nM	CCN1CCN(C[C@@H](O)[C@@H]2Cc3ccccc3CN2)C(=O)c2ccc(C(=O)N3CCC4(CCC(OC)CC4)CC3)cc21 [Compound 006, 1-ethyl-4-((R)-2-hydroxy-2-((S)-1,2,3,4-tetrahydroisoquinolin-3-yl)ethyl)-8-(9-methoxy-3-azaspiro[5.5]undecane-3-carbonyl)-1,2,3,4-tetrahydro-5H-benzo[e][1,4]diazepin-5-one hydrochloride]	4.8 nM	1.8 nM			
